Measurements published in BindingDB's records for doi:10.1124/jpet.103.054775 (Cornell University, 2003).
Values joined by “and” are separate entries in the source; they are usually repeats but may differ in a detail not shown here. Equal values may be shown once. Non-standard residues stand in square brackets, D forms with d. Residues, ends and D or L forms follow the SMILES beside them. Dmt = Cc1cc(O)cc(C)c1C[C@H](N)C(=O)O

Target: Mu-type opioid receptor (Mus musculus, UniProt P42866)
Sequence (P42866 whole entry): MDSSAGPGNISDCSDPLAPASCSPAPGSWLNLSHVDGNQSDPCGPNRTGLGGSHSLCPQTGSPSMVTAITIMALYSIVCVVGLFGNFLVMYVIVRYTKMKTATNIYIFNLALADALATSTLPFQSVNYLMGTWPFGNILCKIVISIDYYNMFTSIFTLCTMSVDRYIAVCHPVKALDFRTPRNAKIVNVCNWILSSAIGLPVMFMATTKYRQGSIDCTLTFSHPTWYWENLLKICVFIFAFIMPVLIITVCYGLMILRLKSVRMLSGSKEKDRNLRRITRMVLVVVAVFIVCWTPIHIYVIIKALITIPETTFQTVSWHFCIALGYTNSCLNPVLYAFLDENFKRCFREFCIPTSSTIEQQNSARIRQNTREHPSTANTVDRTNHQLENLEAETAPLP

Structure (SMILES) | Ki
C[C@@H](NC(=O)[C@@H](N)Cc1ccc(O)cc1)C(=O)N[C@@H](Cc1ccccc1)C(=O)N[C@@H](Cc1ccccc1)C(N)=O (H-Y[dA]FF-NH2) | 1.53 nM and 3.44 nM
NCCC[C@H](NC(=O)[C@H](Cc1ccccc1)NC(=O)[C@@H](CCCN=C(N)N)NC(=O)[C@@H](N)Cc1ccc(O)cc1)C(N)=O [5-amino-2-{1-[1-[1-amino-2-(4-hydroxyphenyl)ethylcarboxamido]-4-amino(imino)methylamino-(1R)-butylcarboxamido]-2-phenylethylcarboxamido}pentanamide] | 1.2 nM and 10.4 nM
Cc1cc(O)cc(C)c1C[C@H](N)C(=O)N[C@H](C)C(=O)N[C@@H](Cc1ccccc1)C(=O)N[C@@H](Cc1ccccc1)C(N)=O [Dmt-d-Ala-Phe-Phe-NH2] (H-[Dmt][dA]FF-NH2) | 0.173 nM and 0.174 nM
Cc1cc(O)cc(C)c1C[C@H](N)C(=O)N[C@H](CCCN=C(N)N)C(=O)N[C@@H](Cc1ccccc1)C(=O)N[C@@H](CN)C(N)=O [Dmt-d-Arg-Phe-A2pr-NH2] | 0.0636 nM and 0.145 nM
Cc1cc(O)cc(C)c1C[C@H](N)C(=O)N[C@H](CCCN=C(N)N)C(=O)N[C@@H](Cc1ccccc1)C(=O)N[C@@H](CCCN)C(N)=O [Dmt-d-Arg-Phe-Orn-NH2] | 0.151 nM and 0.161 nM
NCCCC[C@H](NC(=O)[C@H](Cc1ccccc1)NC(=O)[C@@H](CCCN=C(N)N)NC(=O)[C@@H](N)Cc1ccc(O)cc1)C(N)=O [NSC_122222] | 1.69 nM and 12.9 nM
NC[C@H](NC(=O)[C@H](Cc1ccccc1)NC(=O)[C@@H](CCCN=C(N)N)NC(=O)[C@@H](N)Cc1ccc(O)cc1)C(N)=O [Tyr-d-Arg-Phe-A2pr-NH2] | 2.55 nM and 12.7 nM
